The source of these data is patent US20020010182A1, “Piperazine derivatives as tachykinin antagonists” (FUJISAWA PHARMACEUTICAL CO., LTD., priority 1995, published 2002).

In one series the test system is emesis in the ferret. Description: Emesis in the ferret (copper sulfate induced). It is filed as in vivo. To be noted: i.p. dose of 3.2 and/or 10 mg/kg, 30 min before intra-gastric copper sulfate (40 mg/kg/ml); retching and vomiting observed for 30 min. How it is done:
Individually housed adult male ferrets (Marshall Farms, 1.4 to 2.2 kg) were given an i.p. injection of a solution containing a test compound 30 Min later the emetic responses (retching and vomiting) were induced by administration of intra-gastric copper sulfate (40 mg/kg/ml) and observed for the next 30 min. The timing and number of retches and vomits observed were recorded for each animal. An individual animal was tested with at least 10 days between experiments.

The next series deals with T1, h-NK1 receptors (Homo sapiens, UniProt P25103).
T1 construct: expressed in transfected cells; host or cells: CHO cells (permanent expression), crude cell membranes
Description: Evaluation of NK1 antagonist transport efficiency to the central nervous system using a h-NK1 receptor binding assay. To be noted: 5 min, brain extract of male SD rats 5 min after i.v. injection of test compound, CHO cell membranes expressing h-NK1, read-out: inhibition rate of 125I-BH-Substance P binding to h-NK1 receptors. The method in brief: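 Male SD rats dosed i.v. at 1 mg/kg; brain removed 5 min later after saline perfusion, homogenized, extracted with ethyl acetate. Extract competed against 0.1 nM 125I-BH-Substance P on CHO h-NK1 membranes, 22 °C, 90 min, pH 7.4 Mn2+ buffer; specific binding defined with 3 μM unlabeled Substance P.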

Bounds are passed on as bounds.

T1 sequence (P25103 whole entry): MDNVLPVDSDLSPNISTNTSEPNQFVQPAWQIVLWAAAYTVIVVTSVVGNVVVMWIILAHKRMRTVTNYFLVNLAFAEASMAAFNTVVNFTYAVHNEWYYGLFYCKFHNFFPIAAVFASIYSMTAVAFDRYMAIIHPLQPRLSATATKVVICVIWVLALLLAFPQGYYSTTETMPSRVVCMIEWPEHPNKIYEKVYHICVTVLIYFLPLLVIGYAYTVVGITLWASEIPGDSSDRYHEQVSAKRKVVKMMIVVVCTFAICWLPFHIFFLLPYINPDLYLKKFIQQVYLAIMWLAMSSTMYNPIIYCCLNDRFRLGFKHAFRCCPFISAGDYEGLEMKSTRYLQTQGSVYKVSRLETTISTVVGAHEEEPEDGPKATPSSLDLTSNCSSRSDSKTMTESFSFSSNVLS

For orientation: inhibition means the share of the control response that was lost under treatment. Usually melting point stands for the temperature of the solid-liquid transition. Compound `Cl.Cl.O=C(c1cc(C(F)(F)F)cc(C(F)(F)F)c1)N1CCN(CCCN2CC3CCC(CC3)C2)C[C@H]1Cc1c[nH]c2ccccc12` [Example 22, (2R)-4-[3-(3-azabicyclo(3.2.2]non-3-yl)propyl]-1-[3,5-bis(trifluoromethyl)benzoyl]-2-(1H-indol-3-ylmethyl) piperazine dihydrochloride] gave a melting point of 194 to 202 °C. Besides, the “inhibition rate of emesis in the ferret” value in the series on emesis in the ferret was determined as 100%. Besides, the inhibition at 1 mg/kg at h-NK1 receptors is more than 80%.

On to `CC(=O)c1ccc(C(=O)N2CCN(C(=O)c3cc(C(F)(F)F)cc(C(F)(F)F)c3)[C@H](Cc3ccc(Cl)c(Cl)c3)C2)cc1` [Example 12, (2R)-4-(4-acetylbenzoyl)-1-[3,5-bis (trifluoromethyl)benzoyl]-2-(3,4-dichlorobenzyl)piperazine], for which the “inhibition rate of emesis in the ferret” value in the series with emesis in the ferret was 100%. Besides, on h-NK1 receptors, the inhibition at 1 mg/kg is more than 80%.

The compound `Cl.Cl.O=C(c1cc(C(F)(F)F)cc(C(F)(F)F)c1)N1CCN(CCN2CCSCC2)C[C@H]1Cc1c[nH]c2ccccc12` [Example 37-(6), (2R)-4-(2-Thiomorpholinoethyl)-1-[3,5-bis (trifluoromethyl)benzoyl]-2-(1H-indol-3-ylmethyl) piperazine dihydrochloride] displayed a melting point of 170 to 182 °C. Besides, the “inhibition rate of emesis in the ferret” value with emesis in the ferret was found to be 100%. In addition, the inhibition at 1 mg/kg on h-NK1 receptors was more than 80%.

Consider `Cc1ccc(C[C@@H]2CN(CCCN3CCSCC3)CCN2C(=O)c2cc(C(F)(F)F)cc(C(F)(F)F)c2)cc1C.Cl.Cl` [24-(2), (2R)-1-[3,5-Bis(trifluoromethyl)benzoyl]-2-(3,4-dimethylbenzyl)-4-(3-thiomorpholinopropyl) piperazine dihydrochloride], for which the melting point is 272 °C (dec.). In addition, in the series on emesis in the ferret, the “inhibition rate of emesis in the ferret” value turned out to be 100%. Further, on h-NK1 receptors, the inhibition at 1 mg/kg is more than 80%.

`Cl.Cl.O=C(c1cc(C(F)(F)F)cc(C(F)(F)F)c1)N1CCN(CCCN2CCSCC2)C[C@H]1Cc1c[nH]c2ccccc12` [Example 23, (2R)-1-[3,5-bis(trifluoromethyl)benzoyl]-2-(1H-indol-3-ylmethyl)-4-(3-thiomorpholinopropyl) piperazine dihydrochloride]: the “inhibition rate of emesis in the ferret” value in the series with emesis in the ferret was determined as 100%. Further, at h-NK1 receptors, the inhibition at 1 mg/kg is more than 80%.

`Cc1ccc(C[C@@H]2CN(CCN3CCOCC3)CCN2C(=O)c2cc(C(F)(F)F)cc(C(F)(F)F)c2)cc1C.Cl.Cl` [37-(5), (2R)-4-(2-Morpholinoethyl)-1-[3,5-bis(trifluoromethyl)benzoyl]-2-(3,4-dimethylbenzyl)piperazine dihydrocloride]: the “inhibition rate of emesis in the ferret” value in the series with emesis in the ferret was determined as 100%.
